Patent US8742123B2, “HIV integrase inhibitors from pyridoxine” (TaiMed Biologics, Inc., priority 2008, dated 2014)

Columns and labels:
wild type NL-4.3 = experiment: multi-cycle infection assay in MT-4 cells (MTT cytoprotection); assay type: cell-based, HIV-1; settings: Human immunodeficiency virus 1, MT4, 144 h; MT-4 cells, wild type NL-4.3, 6 days, MTT; read-out: EC50 (nM) multi-cycle
Procedure: The antiviral efficacies of the integrase inhibitor compounds of the invention were evaluated based on EC50 measures obtained from two different in vitro HIV infection assay using cultured MT-4 cells: (1) a multi-cycle infection where cells were infected with wild type NL-4.3) and (2) a single-cycle infection where the cells were infected with a luciferase-bearing, envelope defective (env-) NL-4.3 virus pseudotyped with HIV-1 env (HXBc2.
The incubation period for the multi-cycle infection assay was 6 days. Cell viability (cytoprotection) and EC50 were determined using the colorimetric MTT assay (A. J. Japour et al, Antimicrobial Agents and Chemotherapy, 37, 1095-1101, 1993 and R. Pauwels et al. Journal of Virological Methods, 20, 309-321, 1988).

[1] = molecular target: T1, recombinant HIV-1 integrase (Human immunodeficiency virus type 1 group M subtype B, UniProt P12497); experiment: integrase strand transfer assay; assay type: biochemical; settings: compounds added after assembly, 10% DMSO, read-out: ST IC50
T1 construct: Recombinant integrase (250 ng/well) was assembled onto the immobilized donor oligonucleotide
Procedure: IC50 was determined for the compounds of the inventions based on data generated in strand transfer assays. The IC50 is a measure of the ability of the compounds tested to inhibit the integration of 3′-processed oligonucleotides by recombinant HIV-1 integrase.
Strand transfer assays were performed essentially as described in Hazuda, D. J.; Felock, P.; Hastings, J. C.; Pramanik, B.; Wolfe, A. J. Virol. 1997, 71, 7005-7011). Donor DNA (1.5 pmol/well), biotinylated on the 5′ end of the strand processed by integrase, was immobilized onto streptavidin-coated microtiter plates. Recombinant integrase (250 ng/well) was assembled onto the immobilized donor oligonucleotide in reaction buffer (20 mM Hepes, pH 7.6, 5 mM B-mercaptoethanol, 50 ug/mL bovine serum albumin) containing 30 mM MnCl2. Excess enzyme was removed, and the complexes were washed extensively prior to the addition of the target DNA substrate. The target DNA (0.75 pmoles/well) substrate was labeled on each 3′ end with FITC. After strand transfer, the FITC-labeled products were detected using an anti-FITC antibody conjugated with alkaline phosphatase (Roche) and a chemiluminescent substrate (Tropix CSPD with Sapphire II enhancer, Applied Biosystems). The assay was performed in a final concentration of 10% DMSO. To specifically evaluate inhibition of strand transfer, compounds were added after assembly, just prior to the addition of the target DNA.
The results of the integrase strand transfer assay are reported as IC50 values. IC50 values were determined using a sigmoidal dose-response equation. The formula used for calculating % inhibition was: % Inhibition=[1-(sample counts/average of positive control)]*100. […] Using GraphPad Prism or ActivityBase (IDBS) software IC50 was determined using following sigmoidal dose-response equation: Y=(A+((B−A)/(1+((C/X)^D))))

HIV-1 isolate 94US33931N = experiment: acute infection assay in PHA-stimulated PBMCs, supernatant RT activity; assay type: cell-based; settings: Human immunodeficiency virus 1, PBMC, 144 h, 6 day incubation
Procedure: (§1) Acute infection assays using fresh human phytohemagglutinin (PHA)-stimulated peripheral blood mononuclear cells (PBMCs) were carried out. PBMCs were stimulated with IL-2 and infected with one of two wild-type drug-sensitive clinical HIV-1 isolates. The strains HIV-1 used for the infections, 91US005 (primary R5 strain of HIV-1) and 94US33931N, are both Group M, Subtype B viruses. Antiviral activity was determined as a reduction in supernatent reverse transcriptase (RT) activity after a 6 day incubation.

HIV-1 isolate 91US005 = experiment: as above; assay type: cell-based; settings: Human immunodeficiency virus 1, PBMC, 144 h, HIV-1 isolate 91US005, 6 day incubation
Procedure: as §1

## O=C(NO)c1ncc(CNCc2cc(F)cc(F)c2)c(CO)c1O [Example 10, 5-((3,5-difluorobenzylamino)methyl)-N,3-dihydroxy-4-(hydroxymethyl)picolinamide]
Wild type NL-4.3
  EC50: > 10000 nM

## Cc1c(C(=O)NCc2ccc(F)c(Cl)c2)cnc(C(=O)NO)c1O [Example 74, 3-Hydroxy-4-methyl-pyridine-2,5-dicarboxylic Acid 5-(3-chloro-4-fluoro-benzylamide)2-hydroxyamide]
Wild type NL-4.3
  EC50: 267 nM

## O=C(NO)c1ncc(COCc2ccccc2)c(CO)c1O [Example 18, 5-(Benzyloxymethyl)-N,3-dihydroxy-4-(hydroxymethyl)picolinamide]
[1]
  IC50: 88 nM
Wild type NL-4.3
  EC50: 86 nM

## O=C(Nc1ccc(F)cc1)Nc1cnc(C(=O)NO)c(O)c1CO [Example 27, 5-[3-(4-Fluoro-phenyl)-ureido]-3-hydroxy-4-hydroxymethyl-pyridine-2-carboxylic Acid Hydroxyamide]
Wild type NL-4.3
  EC50: 1100 nM

## O=C(NCc1ccc(Cl)c(Cl)c1)c1cnc(C(=O)NO)c(O)c1CO [Example 16, N^5-(3,4-dichlorobenzyl)-N^2,3-dihydroxy-4-(hydroxymethyl)pyridine-2,5-dicarboxamide]
Wild type NL-4.3
  EC50: 700 nM

## O=C(Nc1cnc(C(=O)NO)c(O)c1CO)c1ccc(F)cc1 [Example 23, 5-(4-Fluoro-benzoylamino)-3-hydroxy-4-hydroxymethyl-pyridine-2-carboxylic Acid Hydroxyamide]
Wild type NL-4.3
  EC50: 6300 nM

## O=C(NO)c1ncc(CNCc2ccc3c(c2)OCO3)c(CO)c1O [Example 11, 5-((benzo[d][1,3]dioxol-5-ylmethylamino)methyl)-N,3-dihydroxy-4-(hydroxymethyl)picolinamide]
Wild type NL-4.3
  EC50: 300 nM

## O=C(NO)c1ncc(CNc2ccc(F)cc2)c(CO)c1O [Example 21, 5-[(4-Fluoro-phenylamino)-methyl]-3-hydroxy-4-hydroxymethyl-pyridine-2-carboxylic Acid Hydroxyamide]
Wild type NL-4.3
  EC50: 4.3 nM

## O=C(NO)c1ncc(CN(Cc2ccccc2)c2ccc(F)cc2)c(CO)c1O [Example 25, 5-{[Benzyl-(4-fluoro-phenyl)-amino]-methyl}-3-hydroxy-4-hydroxymethyl-pyridine-2-carboxylic Acid Hydroxyamide]
Wild type NL-4.3
  EC50: 175 nM

## O=C(NCc1ccc(F)c(Cl)c1)c1cnc(C(=O)NO)c(O)c1CO [Example 14, N^5-(3-chloro-4-fluorobenzyl)-N2,3-dihydroxy-4-(hydroxymethyl)pyridine-2,5-dicarboxamide]
[1]
  IC50: 27 nM
Wild type NL-4.3
  EC50: 123 nM

## COCc1c(C(=O)N(C)Cc2ccc(F)cc2)cnc(C(=O)NO)c1O [Example 12, N^5-(4-fluorobenzyl)-N2,3-dihydroxy-4-(methoxymethyl)-N^5-methylpyridine-2,5-dicarboxamide]
Wild type NL-4.3
  EC50: 14000 nM

## O=C(NCc1cc(F)cc(F)c1)c1cnc(C(=O)NOCc2ccccc2)c(OCc2ccccc2)c1CO [Example 7, N^2,3-bis(benzyloxy)-N^5-(3,5-difluorobenzyl)-4-(hydroxymethyl)pyridine-2,5-dicarboxamide]
Wild type NL-4.3
  EC50: 1500 nM

## O=C(NCc1ccc(Cl)c(Cl)c1)c1cnc(C(=O)NOCc2ccccc2)c(OCc2ccccc2)c1CO [Example 15, N^2,3-bis(benzyloxy)-N^5-(3,4-dichlorobenzyl)-4-(hydroxymethyl)pyridine-2,5-dicarboxamide]
Wild type NL-4.3
  EC50: > 10000 nM

## O=C(NCc1ccc(F)c(Cl)c1)c1cnc(C(=O)NOCc2ccccc2)c(OCc2ccccc2)c1CO [Example 13, N^2,3-bis(benzyloxy)-N^5-(3-chloro-4-fluorobenzyl)-4-(hydroxymethyl)pyridine-2,5-dicarboxamide]
Wild type NL-4.3
  EC50: > 10000 nM

## O=C(NCc1ccc(F)c(F)c1)c1cnc(C(=O)NO)c(O)c1CO [Example 20, N^5-(3,4-difluorobenzyl)-N^2,3-dihydroxy-4-(hydroxymethyl)pyridine-2,5-dicarboxamide]
Wild type NL-4.3
  EC50: 30 nM

## COc1ccc(CNC(=O)c2cnc(C(=O)NO)c(O)c2CO)cc1 [Example 6, N^2,3-dihydroxy-4-(hydroxymethyl)-N^5-(4-methoxybenzyl)pyridine-2,5-dicarboxamide]
Wild type NL-4.3
  EC50: 1000 nM

## Cc1cn([C@H]2C[C@H](N=[N+]=[N-])[C@@H](CO)O2)c(=O)[nH]c1=O [Retrovir (AZT), 3-Azido-3-deoxythymine (Zidovudine), reference compound]
HIV-1 isolate 94US33931N
  EC50: 3 nM
HIV-1 isolate 91US005
  EC50: 6 nM

## O=C(NO)c1ncc(COc2ccc(F)cc2)c(CO)c1O [Example 28, 5-(4-Fluoro-phenoxymethyl)-3-hydroxy-4-hydroxymethyl-pyridine-2-carboxylic Acid Hydroxyamide]
Wild type NL-4.3
  EC50: 186 nM

## COc1ccc(COCc2cnc(C(=O)NO)c3c2COC(C)(C)O3)cc1 [Example 19, N-hydroxy-5-((4-methoxybenzyloxy)methyl)-2,2-dimethyl-4H-[1,3]dioxino[4,5-c]pyridine-8-carboxamide]
Wild type NL-4.3
  EC50: 5060 nM

## O=C(NO)c1ncc(CS(=O)(=O)Cc2ccc(F)cc2)c(CO)c1O [Example 71, 5-(4-Fluoro-phenylmethanesulfonylmethyl)-3-hydroxy-4-hydroxymethyl-pyridine-2-carboxylic Acid Hydroxyamide]
Wild type NL-4.3
  EC50: 4.3 nM

## COc1ccc(COCc2cnc(C(=O)NO)c(O)c2CO)cc1 [Example 17, N,3-Dihydroxy-4-(hydroxymethyl)-5-((4-methoxybenzyloxy)methyl)-picolinamide]
Wild type NL-4.3
  EC50: 2000 nM

## O=C(NCc1ccc2c(c1)OCO2)c1cnc(C(=O)NO)c(O)c1CO [Example 4, N^5-(benzo[d][1,3]dioxol-5-ylmethyl)-N2,3-dihydroxy-4-(hydroxymethyl)pyridine-2,5-dicarboxamide]
Wild type NL-4.3
  EC50: > 10000 nM

## O=C(NO)c1ncc(CNCc2ccc(F)cc2)c(CO)c1O [Example 9]
Wild type NL-4.3
  EC50: 1000 nM

## COC(=O)N(Cc1ccc(F)cc1)Cc1cnc(C(=O)NO)c(O)c1CO [Example 65, (4-Fluoro-benzyl)-(5-hydroxy-6-hydroxycarbamoyl-4-hydroxymethyl-pyridin-3-ylmethyl)-carbamic Acid Methyl Ester]
Wild type NL-4.3
  EC50: > 10000 nM

## O=C(NO)c1ncc(CCc2ccc(F)cc2)c(CO)c1O [Example 67, 5-[2-(4-Fluoro-phenyl)-ethyl]-3-hydroxy-4-hydroxymethyl-pyridine-2-carboxylic Acid Hydroxyamide]
Wild type NL-4.3
  EC50: 235 nM

## COc1ccc(CNC(=O)c2cnc(C(=O)NOCc3ccccc3)c(OCc3ccccc3)c2CO)cc1 [Example 5, N^2,3-bis(benzyloxy)-4-(hydroxymethyl)-N^5-(4-methoxybenzyl)pyridine-2,5-dicarboxamide]
Wild type NL-4.3
  EC50: 900 nM

## O=C(NCc1cc(F)cc(F)c1)c1cnc(C(=O)NO)c(O)c1CO [Example 8, N^5-(3,5-difluorobenzyl)-N^2,3-dihydroxy-4-(hydroxymethyl)pyridine-2,5-dicarboxamide]
Wild type NL-4.3
  EC50: > 10000 nM
